Test results: PMC10937419, “Exploring pyrrolidinyl-spirooxindole natural products as promising platforms for the synthesis of novel spirooxindoles as EGFR/CDK2 inhibitors for halting breast cancer cells” (Frontiers in Chemistry, 2024)

Columns and labels:
[1] = test system: MCF-7 cells; test: MTT cytotoxicity assay, MCF-7 breast cancer cells; format: cell-based; conditions: Homo sapiens, MCF7; MTT assay; mean ± SD of three independent trials; read-out: IC50 ± SD, MCF-7
Method: (§1) All cells were incubated at 37 °C in 5% carbon dioxide atmosphere (NuAire). Cells were plated at a density of 5x10^4 cells in triplicates in a plate of 96 wells. On the second day, cells were treated with the compounds with concentrations of (0.01, 0.1, 1, 10, and 100 µM). Cell viability was assessed using the MTT assay [6].

[2] = test system: MDA-MB-231 cells; test: MTT cytotoxicity assay, MDA-MB-231 breast cancer cells; format: cell-based; conditions: Homo sapiens, MDA-MB-231, MTT assay; mean ± SD of three independent trials; read-out: IC50 ± SD, MDA-MB-231
Method: as §1

[3] = test system: WISH cells; test: MTT cytotoxicity (safety) assay, normal WISH cells; format: cell-based; conditions: mean ± SD of three independent trials
Method: The cytotoxicity of the synthesized compounds was tested using the MTT assay on breast cancer cells (MCF-7 and MDA-MB-231).
The methods for the Cytotoxic activity ([Mosmann, 1983]; [Nafie et al., 2020a]); EGFR/CDK-2 enzyme inhibition ([Nafie et al., 2022a]); Flow cytometry using Annexin V/PI staining; Gene expression analysis using RT-PCR ([Nafie et al., 2022b]); are amended in the Supplementary Material S1.
Both breast cancer; MCF-7 and MDA-MB-231 and normal (WISH) cells were purchased from the National Research Institute, Egypt, and maintained in RPMI-1640 medium L-Glutamine (Lonza Verviers SPRL, Belgium, cat#12-604F). All cells were incubated at 37 °C in 5% carbon dioxide atmosphere (NuAire). Cells were plated at a density of 5x10^4 cells in triplicates in a plate of 96 wells. On the second day, cells were treated with the compounds with concentrations of (0.01, 0.1, 1, 10, and 100 µM). Cell viability was assessed using the MTT assay [6].

[4] = molecular target: T1, EGFR kinase (Homo sapiens, UniProt P00533); test: EGFR kinase inhibition assay; format: biochemical; conditions: for % remaining EGFR kinase activity (relative to control): signal relative to control; for % remaining EGFR kinase activity (relative to control) / inhibition at 0.01 µM / inhibition at 0.1 µM / inhibition at 1 µM / inhibition at 2.5 µM / inhibition at 5 µM / inhibition at 10 µM: ΔT=30 min; for IC50: average of three independent replicates; for % Of EGFR inhibition: concentration not given in Table 2, matches 10 µM in the 4th table
T1 construct: purchased BPS Bioscience Corporation 40321
Method: (§2) Inhibitory activities of 5g, 5l, and 5n were tested against EGFR and CDK-2.
(§3) Plus, Promega, USA) inhibition assay.

[5] = molecular target: T2, CDK-2 kinase (Homo sapiens, UniProt P24941); test: CDK-2 kinase inhibition assay (Kinase-Glo Plus); format: biochemical; conditions: for CDK-2 kinase activity remaining (% of control): signal relative to control; for CDK-2 kinase activity remaining (% of control) / inhibition at 0.01 µM / inhibition at 0.1 µM / inhibition at 1 µM / inhibition at 2.5 µM / inhibition at 5 µM / inhibition at 10 µM: ΔT=30 min; for inhibition at 0.01 µM / inhibition at 0.1 µM / inhibition at 1 µM / inhibition at 2.5 µM / inhibition at 5 µM / inhibition at 10 µM: read-out: % of inhibition, CDK2; for IC50: average of three independent replicates
T2 construct: purchased not clearly printed (Promega, USA is printed after 'Kinase-Glo Plus'; #79599 is a BPS Bioscience number to my knowledge) 79599
Method: as §2, §3

[6] = test system: MCF-7 cells; test: Annexin V/PI staining flow cytometry (apoptosis/necrosis); format: cell-based; conditions: MCF-7, at the IC50 value, 48 h
Method: The apoptotic activity of compounds 5g was determined by flow cytometric analysis of Annexin V/PI staining of untreated and treated MCF-7 cells. […] Additionally, they induced necrotic cell death by 5.43% compared to 2.12% in the untreated control.
FIGURE 4 (A) Bar representation of the percentage of apoptosis (early and late apoptotic cell population) using Annexin V/Propidium Iodide staining.
MCF-7 cells were seeded into 6-well culture plates (3-5× 10^5 cells/well) and incubated overnight. […] Next, media supernatants and cells were collected and rinsed with ice-cold PBS. Then cells were suspended the cells in 100 µL of annexin binding buffer solution "25 mM CaCl2, 1.4 M NaCl, and 0.1 M Hepes/NaOH, pH 7.4” and incubation with “Annexin V-FITC solution (1:100) and propidium iodide (PI)” at a concentration equals 10 µg/mL in the dark for 30 min. Stained cells were then acquired by BD FACSCalibur™ Flow Cytometer.

[7] = test system: MCF-7 cells; test: Cell cycle analysis by flow cytometry; format: cell-based; conditions: MCF-7, at the IC50 value, 48 h
[8] = test system: MCF-7 cells; test: RT-PCR gene expression of apoptosis-related genes; format: cell-based; conditions: MCF-7, at the IC50 value, 48 h
From the text: Both the untreated and treated MCF-7 cells were subjected to RT-PCR to confirm apoptotic cell death (Figure 5). […] These findings are in line with the possibility of triggering cell death by blocking enzymes. Activation of the intrinsic apoptotic pathway leads to mitochondrial potential loss and cytochrome c release. When the ratio of proteins that promote cell death to those that prevent it rises, a cascade reaction involving caspases 3 and 9 is set in motion, leading to cell death by caspase-dependent apoptosis.
“Values are expressed as Mean ± SD of three independent replicates”. “Data were normalized using β-actin as house-keeping gene. The dashed line represents the gene expression level of untreated control. Fold change was calculated using 2^^- ΔΔCT”.
Gene expression of Bcl-2, the anti-apoptotic gene, and the pro-apoptotic genes P53, Bax, and Caspapses-3,8,9 were examined to delve deeper into the apoptotic pathway. […] After treatment, RT-PCR reaction was carried out following routine work. Then, the Ct values were collected to calculate the relative genes’ expression in all samples by normalization to the β-actin housekeeping gene.

[9] = test system: MCF-7; set-up: method as in Al-Jassas, et al., 2023; conditions: ref Al-Jassas, et al., 2023; cited from earlier work
[10] = test system: HepG2; set-up: method as in Al-Jassas, et al., 2023; conditions: ref Al-Jassas, et al., 2023; cited from earlier work
[11] = test system: CDK-2; set-up: method as in Al-Jassas, et al., 2023; conditions: ref Al-Jassas, et al., 2023; read-out: CDK-2 inhibition; cited from earlier work
[12] = test system: EGFR; set-up: method as in Al-Jassas, et al., 2023; conditions: ref Al-Jassas, et al., 2023; read-out: IC50 for EGFR inhibition; cited from earlier work
[13] = test system: A549 cells; set-up: method as in Barakat, et al., 2023; conditions: ref Barakat, et al., 2023, cited from earlier work

T1 sequence (P00533 25-1210): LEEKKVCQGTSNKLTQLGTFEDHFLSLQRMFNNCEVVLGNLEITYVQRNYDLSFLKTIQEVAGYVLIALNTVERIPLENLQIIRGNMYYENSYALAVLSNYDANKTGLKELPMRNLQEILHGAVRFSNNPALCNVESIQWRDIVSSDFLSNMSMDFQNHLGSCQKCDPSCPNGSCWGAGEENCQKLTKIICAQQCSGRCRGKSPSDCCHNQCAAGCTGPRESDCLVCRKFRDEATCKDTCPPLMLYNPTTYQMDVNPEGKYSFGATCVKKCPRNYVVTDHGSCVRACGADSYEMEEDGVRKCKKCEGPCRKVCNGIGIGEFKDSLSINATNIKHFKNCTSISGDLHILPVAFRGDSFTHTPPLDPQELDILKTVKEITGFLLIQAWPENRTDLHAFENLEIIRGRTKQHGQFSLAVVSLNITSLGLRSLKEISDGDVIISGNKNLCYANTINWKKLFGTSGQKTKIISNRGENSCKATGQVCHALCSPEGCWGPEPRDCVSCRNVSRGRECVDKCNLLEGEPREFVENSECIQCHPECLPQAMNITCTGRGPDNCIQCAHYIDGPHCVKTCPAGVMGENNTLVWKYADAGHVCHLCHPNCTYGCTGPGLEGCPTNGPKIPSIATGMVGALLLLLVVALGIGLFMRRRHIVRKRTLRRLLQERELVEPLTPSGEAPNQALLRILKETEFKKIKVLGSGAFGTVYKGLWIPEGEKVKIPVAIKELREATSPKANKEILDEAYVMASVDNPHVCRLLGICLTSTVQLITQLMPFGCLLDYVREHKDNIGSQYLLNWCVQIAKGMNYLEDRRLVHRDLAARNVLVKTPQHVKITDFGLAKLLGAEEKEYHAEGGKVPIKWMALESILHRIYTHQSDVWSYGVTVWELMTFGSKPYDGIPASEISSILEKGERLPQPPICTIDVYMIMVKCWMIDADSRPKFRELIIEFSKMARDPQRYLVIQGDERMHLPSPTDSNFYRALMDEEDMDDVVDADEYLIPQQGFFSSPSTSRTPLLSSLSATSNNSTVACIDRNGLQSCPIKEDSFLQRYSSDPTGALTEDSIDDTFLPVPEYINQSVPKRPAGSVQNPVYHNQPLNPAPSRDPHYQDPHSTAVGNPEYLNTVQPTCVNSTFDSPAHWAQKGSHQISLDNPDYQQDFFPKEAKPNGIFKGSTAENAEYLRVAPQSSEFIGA

O=C(O)CN1C(=O)S[C@@]2(C1=O)[C@@H](c1ccc(Cl)cc1)[C@H]1CSCN1[C@@]21C(=O)Nc2ccc(Br)cc21 [Compound 5g, 2-((3S,6′S,7′S,7a′S)-5-bromo-7'-(4-chlorophenyl)-2,2″,4″-trioxo-7′,7a′-dihydro-1′H,3′H-dispiro [indoline-3,5′-pyrrolo [1,2-c]thiazole-6′,5″-thiazolidin]-3″-yl)acetic acid]
IC50 [1]: 2800 ± 400 nM
IC50 [2]: 23500 ± 900 nM
IC50 [3]: 39300 ± 1800 nM
% remaining EGFR kinase activity (relative to control) ([4]; 0.01 µM): 90.58%
inhibition at 0.01 µM ([4]; 0.01 µM): 9.42%
% remaining EGFR kinase activity (relative to control) ([4]; 0.1 µM): 69.72%
inhibition at 0.1 µM ([4]; 0.1 µM): 30.3%
% remaining EGFR kinase activity (relative to control) ([4]; 1 µM): 40.27%
inhibition at 1 µM ([4]; 1 µM): 59.7%
% remaining EGFR kinase activity (relative to control) ([4]; 2.5 µM): 33.39%
inhibition at 2.5 µM ([4]; 2.5 µM): 66.6%
% remaining EGFR kinase activity (relative to control) ([4]; 5 µM): 31.63%
inhibition at 5 µM ([4]; 5 µM): 68.4%
% remaining EGFR kinase activity (relative to control) ([4]; 10 µM): 7.867%
inhibition at 10 µM ([4]; 10 µM): 92.6%
IC50 [4]: 26 ± 6 nM
% Of EGFR inhibition [4]: 92.6 ± 1.9%
CDK-2 kinase activity remaining (% of control) ([5]; 0.01 µM): 90.11%
inhibition at 0.01 µM ([5]; 0.01 µM): 9.89%
CDK-2 kinase activity remaining (% of control) ([5]; 0.1 µM): 78.5%
inhibition at 0.1 µM ([5]; 0.1 µM): 21.5%
CDK-2 kinase activity remaining (% of control) ([5]; 1 µM): 64.55%
inhibition at 1 µM ([5]; 1 µM): 35.5%
CDK-2 kinase activity remaining (% of control) ([5]; 2.5 µM): 60.7%
inhibition at 2.5 µM ([5]; 2.5 µM): 39.3%
CDK-2 kinase activity remaining (% of control) ([5]; 5 µM): 33.99%
inhibition at 5 µM ([5]; 5 µM): 66%
CDK-2 kinase activity remaining (% of control) ([5]; 10 µM): 27.2254%
inhibition at 10 µM ([5]; 10 µM): 91.9%
IC50 [5]: 301 nM
early apoptosis [6]: 21.87%
late apoptosis [6]: 10.15%
necrotic cell death ([6]; untreated control 2.12%): 5.43%
cell population in the G0-G1-phase ([7]; control 31%): 39.8%
cell population in the S-phase ([7]; control 32.1%): 45.2%
cells population at G2/M phase ([7]; versus untreated control): decreased
Bcl-2 gene expression fold change ([8]; anti-apoptotic gene, downregulated): 0.39 fold
Bax gene expression fold change ([8]; normalized to β-actin, 2^-ΔΔCT): 6.26 fold
P53 gene expression fold change ([8]; normalized to β-actin, 2^-ΔΔCT): 4.1 fold
caspase 3 gene expression fold change ([8]; normalized to β-actin, 2^-ΔΔCT): 9.2 fold
caspase 8 gene expression fold change ([8]; normalized to β-actin, 2^-ΔΔCT): 1.7 fold
caspase 9 gene expression fold change ([8]; normalized to β-actin, 2^-ΔΔCT): 6.13 fold

COC(=O)[C@H](C)NC(=O)CN1C(=O)S[C@@]2(C1=O)[C@@H](c1ccc(Cl)cc1)[C@H]1CSCN1[C@@]21C(=O)Nc2cc(Cl)ccc21 [Compound 5n, Methyl (2-((3S,6′S,7′S,7a′S)-6-chloro-7'-(4-chlorophenyl)-2,2″,4″-trioxo-7′,7a′-dihydro-1′H,3′H-dispiro [indoline-3,5′-pyrrolo [1,2-c]thiazole-6′,5″-thiazolidin]-3″-yl)acetyl)alaninate]
IC50 [1]: 3900 ± 300 nM
IC50 [2]: 5300 ± 400 nM
IC50 [3]: 47200 ± 2100 nM
% remaining EGFR kinase activity (relative to control) ([4]; 0.01 µM): 71.48%
inhibition at 0.01 µM ([4]; 0.01 µM): 28.5%
% remaining EGFR kinase activity (relative to control) ([4]; 0.1 µM): 59.63%
inhibition at 0.1 µM ([4]; 0.1 µM): 40.4%
% remaining EGFR kinase activity (relative to control) ([4]; 1 µM): 36.13%
inhibition at 1 µM ([4]; 1 µM): 63.9%
% remaining EGFR kinase activity (relative to control) ([4]; 2.5 µM): 37.42%
inhibition at 2.5 µM ([4]; 2.5 µM): 62.6%
% remaining EGFR kinase activity (relative to control) ([4]; 5 µM): 30.59%
inhibition at 5 µM ([4]; 5 µM): 69.4%
% remaining EGFR kinase activity (relative to control) ([4]; 10 µM): 8.54%
inhibition at 10 µM ([4]; 10 µM): 91.2%
IC50 [4]: 40 ± 1 nM
% Of EGFR inhibition [4]: 91.2 ± 2.1%
CDK-2 kinase activity remaining (% of control) ([5]; 0.01 µM): 91.05%
inhibition at 0.01 µM ([5]; 0.01 µM): 8.95%
CDK-2 kinase activity remaining (% of control) ([5]; 0.1 µM): 74.4404%
inhibition at 0.1 µM ([5]; 0.1 µM): 25.6%
CDK-2 kinase activity remaining (% of control) ([5]; 1 µM): 63.25%
inhibition at 1 µM ([5]; 1 µM): 36.8%
CDK-2 kinase activity remaining (% of control) ([5]; 2.5 µM): 61.79%
inhibition at 2.5 µM ([5]; 2.5 µM): 38.2%
CDK-2 kinase activity remaining (% of control) ([5]; 5 µM): 47.27%
inhibition at 5 µM ([5]; 5 µM): 52.7%
CDK-2 kinase activity remaining (% of control) ([5]; 10 µM): 42.84%
inhibition at 10 µM ([5]; 10 µM): 88.7%
IC50 [5]: 557 nM
% Of CDK-2 inhibition ([5]; concentration not given in Table 2, matches 10 µM in the 5th table): 88.7%

O=C(c1ccc(Br)cc1)[C@H]1[C@H](c2cn(-c3ccccc3)nc2-c2ccccc2)C2CC3CCCCC3N2[C@]12C(=O)Nc1ccc(Cl)cc12 (stereo partly shown) [Compound II]
IC50 [9]: 189 ± 10 nM
IC50 [10]: 1040 ± 210 nM
IC50 [11]: 35 nM
IC50 [12]: 96.6 nM

O=C(c1nc2ccccc2[nH]1)[C@H]1[C@H](c2ccc(Cl)cc2Cl)C2CC3CCCCC3N2[C@@]12c1ccccc1-c1nc3ccccc3nc12 (stereo partly shown) [hit III]
selectivity index (SI) ([13]; A549 cells versus normal lung fibroblasts Wi-38): 6.64
IC50 [13]: 54 nM
